# Data reported in US20100311748A1, “HETEROCYCLIC AMIDES USEFUL FOR THE TREATMENT OF CANCER AND PSORIASIS” (ASTRAZENECA AB, priority 2007, published 2010).
# Tested on: Hedgehog pathway
# Experiment: Hedgehog Pathway Cellular Differentiation Assay (alkaline phosphatase production in C3H10T1/2 cells with Shh ligand)
# Format: cell-based
# Details: 3 μM compound, Shh ligand conditioned media, 72 h, alkaline phosphatase
# How it was run: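 C3H10T1/2 cells in DMEM/2% FBS with Shh-conditioned medium were treated 72 h with compound, threefold dilutions from 30 μM to 3 nM. After RIPA lysis, alkaline phosphatase was read with pNp (1 mg/mL, diethanolamine pH 9.8) at 30 °C, absorbance 405 nm. Percent inhibition and IC50 came from absorbance.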
row,Compound,% Inhibition at 3 μM
1,"Cc1ccc(-c2ncc[nH]2)cc1NC(=O)c1ccc2c(c1)OCCO2 [Example 151, N-[5-(1H-imidazol-2-yl)-2-methyl-phenyl]-2,5-dioxabicyclo[4.4.0]deca-7,9,11-triene-8-carboxamide]",21.9%
2,"Cc1ccc(-c2ccc3cc[nH]c3n2)cc1NC(=O)c1ccc(OCc2ccccn2)cc1 [Example 3, N-[5-(5,7-diazabicyclo[4.3.0]nona-2,4,8,10-tetraen-4-yl)-2-methyl-phenyl]-4-(pyridin-2-ylmethoxy)benzamide]",67.3%

# Same assay, conditions: Mus musculus, C3H 10T1/2, 3 μM compound, Shh ligand conditioned media, 72 h, alkaline phosphatase
row,Compound,inhibition at 3 µM
1,"Cc1ccc(-c2ncc[nH]2)cc1NC(=O)c1ccc(N2CCOCC2)nc1 [Example 153, N-[5-(1H-imidazol-2-yl)-2-methyl-phenyl]-6-morpholin-4-yl-pyridine-3-carboxamide]",53.7%
2,"Cc1ccc(-c2ncc[nH]2)cc1NC(=O)c1ccc(OCc2ccccc2)cc1 [Example 58, N-(5-(1H-imidazol-2-yl)-2-methylphenyl)-4-(benzyloxy)benzamide]",86.2%
3,"Cc1ccc(-c2ncc[nH]2)cc1NC(=O)c1ccc(OCc2ccc(N3CCN(C)CC3)cn2)cc1 [Example 155, N-[5-(1H-imidazol-2-yl)-2-methylphenyl]-4-{[5-(4-methylpiperazin-1-yl)pyridin-2-yl]methoxy}benzamide]",83.3%
4,"COc1cccc(COc2ccc(C(=O)Nc3cc(-c4ncc[nH]4)ccc3C)cc2)n1 [Example 123, N-(5-(1H-imidazol-2-yl)-2-methylphenyl)-4-((6-methoxypyridin-2-yl)methoxy)benzamide]",84.7%
5,"Cc1ccc(-c2ncc[nH]2)cc1NC(=O)c1ccc(OCc2cc(OCCN(C)C)ccn2)cc1 [Example 94, 4-({4-[2-(dimethylamino)ethoxy]pyridin-2-yl}methoxy)-N-[5-(1H-imidazol-2-yl)-2-methylphenyl]benzamide]",56.7%
6,"Cc1ccc(-c2ncc[nH]2)cc1NC(=O)c1ccc(OCc2cc(OCCN3CCCCC3)ccn2)cc1 [Example 95, N-[5-(1H-imidazol-2-yl)-2-methylphenyl]-4-{[4-(2-piperidin-1-ylethoxy)pyridin-2-yl]methoxy}benzamide]",47%
7,"Cc1cc(C)c(-c2cn(C)cn2)cc1NC(=O)c1ccc(OCc2ccccn2)cc1 [Example 71, N-[2,4-dimethyl-5-(1-methyl-1H-imidazol-4-yl)phenyl]-4-(pyridin-2-ylmethoxy)benzamide]",84.9%
8,"Cc1ccc(-c2ncc[nH]2)cc1NC(=O)c1ccc(OCc2ccc(OCCO)cn2)cc1 [Example 131, N-(5-(1H-imidazol-2-yl)-2-methylphenyl)-4-((5-(2-hydroxyethoxy)pyridin-2-yl)methoxy)benzamide]",72.7%
9,"Cc1ccc(-c2ncc[nH]2)cc1NC(=O)c1cccc(C#N)c1 [Example 146, 3-cyano-N-[5-(1H-imidazol-2-yl)-2-methyl-phenyl]benzamide]",17.1%
10,"Cc1ccc(-c2nccn2C)cc1NC(=O)c1ccc(OCc2cc(OCC3CC3)ccn2)cc1 [Example 98, 4-{[4-(cyclopropylmethoxy)pyridin-2-yl]methoxy}-N-[2-methyl-5-(1-methyl-1H-imidazol-2-yl)phenyl]benzamide]",78.4%
11,"Cc1ccc(-c2ncc(C)n2C)cc1NC(=O)c1ccc(OCc2ccccc2C#N)cc1 [Example 49, 4-[(2-cyanophenyl)methoxy]-N-[5-(1,5-dimethylimidazol-2-yl)-2-methyl-phenyl]benzamide]",82%
12,"Cc1ccc(-c2nc(-c3ccccc3)c[nH]2)cc1NC(=O)c1ccc(OCc2ccccn2)cc1 [Example 81, N-[2-methyl-5-(4-phenyl-1H-imidazol-2-yl)phenyl]-4-(pyridin-2-ylmethoxy)benzamide]",78.8%
13,"COc1cccnc1COc1ccc(C(=O)Nc2cc(-c3ncc[nH]3)ccc2C)cc1 [Example 135, N-(5-(1H-imidazol-2-yl)-2-methylphenyl)-4-((3-methoxypyridin-2-yl)methoxy)benzamide]",76.9%
14,"COc1ccnc(COc2ccc(C(=O)Nc3cc(-c4nccn4C)ccc3C)cc2)c1 [Example 93, 4-[(4-methoxypyridin-2-yl)methoxy]-N-[2-methyl-5-(1-methyl-1H-imidazol-2-yl)phenyl]benzamide]",79.9%
15,"Cc1ccc(-c2ccncc2)cc1NC(=O)c1ccc(OCc2ccccn2)cc1 [Example 11, N-(2-methyl-5-pyridin-4-yl-phenyl)-4-(pyridin-2-ylmethoxy)benzamide]",75%
16,"Cc1ccc(-c2ncc[nH]2)cc1NC(=O)c1ccc(OCc2cc(N3CCOCC3)ccn2)cc1 [Example 89, N-[5-(1H-imidazol-2-yl)-2-methylphenyl]-4-[(4-morpholin-4-ylpyridin-2-yl)methoxy]benzamide]",72.7%
17,"Cc1ccc(-c2nc(C(C)(C)C)c[nH]2)cc1NC(=O)c1ccc(OCc2ccccn2)cc1 [Example 86, N-[5-(4-tert-butyl-1H-imidazol-2-yl)-2-methylphenyl]-4-(pyridin-2-ylmethoxy)benzamide]",85.7%
18,"Cc1ccc(-c2ncc[nH]2)cc1NC(=O)c1ccc(/C=C/c2ccccn2)cc1 [Example 109, N-[5-(1H-imidazol-2-yl)-2-methylphenyl]-4-[(E)-2-pyridin-2-ylethenyl]benzamide]",91.3%

row,Compound,inhibition at 3 µM
1,"Cc1ccc(-c2ccnn2C)cc1NC(=O)c1ccc(OCc2ccccn2)cc1 [Example 34, N-[2-methyl-5-(2-methylpyrazol-3-yl)phenyl]-4-(pyridin-2-ylmethoxy)benzamide]",69.4%
2,"Cc1ccc(-c2ncc(C)n2C)cc1NC(=O)c1ccc(OCc2ccccn2)cc1 [Example 20, N-[5-(1,5-dimethylimidazol-2-yl)-2-methyl-phenyl]-4-(pyridin-2-ylmethoxy)benzamide]",58.1%
3,"Cc1ccc(-c2ncc[nH]2)cc1NC(=O)c1ccc(OCc2cccc(Br)n2)cc1 [Example 119, N-(5-(1H-imidazol-2-yl)-2-methylphenyl)-4-((6-bromopyridin-2-yl)methoxy)benzamide]",92.4%
4,"Cc1ccc(-c2[nH]cnc2C)cc1NC(=O)c1ccc(OCc2ccccn2)cc1 [Example 27, N-[2-methyl-5-(4-methyl-1H-imidazol-5-yl)phenyl]-4-(pyridin-2-ylmethoxy)benzamide]",76.6%
5,"Cc1ccc(-c2ncc[nH]2)cc1NC(=O)c1ccc(C(F)(F)F)nc1C [Example 147, N-[5-(1H-imidazol-2-yl)-2-methyl-phenyl]-2-methyl-6-(trifluoromethyl)pyridine-3-carboxamide]",19.3%
6,"Cc1cc(-c2nc3ccccc3[nH]2)ccc1NC(=O)c1ccc(OCc2ccccn2)cc1 [Example 31, N-[4-(1H-benzoimidazol-2-yl)-2-methyl-phenyl]-4-(pyridin-2-ylmethoxy)benzamide]",27.9%
7,"Cc1ccc(-c2ncc[nH]2)cc1NC(=O)c1ccc(OCC2CCCCN2C(=O)OC(C)(C)C)cc1 (centres unmarked) [Example 141, tert-butyl 2-((4-(5-(1H-imidazol-2-yl)-2-methylphenylcarbamoyl)phenoxy)methyl)piperidine-1-carboxylate]",85.3%
8,"Cc1ccc(-c2ncc[nH]2)cc1NC(=O)c1ccc(COc2ccccn2)cc1 [Example 134, N-[5-(1H-imidazol-2-yl)-2-methylphenyl]-4-[(pyridin-2-yloxy)methyl]benzamide]",77.3%
9,"Cc1cc(C)c(-c2ncn(C)c2CO)cc1NC(=O)c1ccc(OCc2ccccn2)cc1 [Example 79, N-(5-(5-(hydroxymethyl)-1-methyl-1H-imidazol-4-yl)-2,4-dimethylphenyl)-4-(pyridin-2-ylmethoxy)benzamide]",85.9%
10,"Cc1cc(C)c(-c2cnc(C)n2C)cc1NC(=O)c1ccc(OCc2ccccn2)cc1 [Example 70, N-[5-(1,2-dimethyl-1H-imidazol-5-yl)-2,4-dimethylphenyl]-4-(pyridin-2-ylmethoxy)benzamide]",78.1%
11,"Cc1ccc(-c2ncc[nH]2)cc1NC(=O)c1ccc(OCc2ccccn2)cn1 [Example 112, N-[5-(1H-imidazol-2-yl)-2-methylphenyl]-5-(pyridin-2-ylmethoxy)pyridine-2-carboxamide]",54.3%
12,"Cc1ccc(-c2ccccc2)cc1NC(=O)c1ccc(OCc2ccccn2)cc1 [Example 65, N-(2-methyl-5-phenyl-phenyl)-4-(pyridin-2-ylmethoxy)benzamide]",50%
13,"Cc1ccc(-c2cn(C)cn2)cc1NC(=O)c1ccc(OCc2ccccn2)cc1 [Example 21, N-[2-methyl-5-(1-methyl-1H-imidazol-4-yl)phenyl]-4-(pyridin-2-ylmethoxy)benzamide]",73.4%
14,"Cc1ccc(-c2nc(-c3cccnc3)c[nH]2)cc1NC(=O)c1ccc(OCc2ccccn2)cc1 [Example 84, N-[2-methyl-5-(4-pyridin-3-yl-1H-imidazol-2-yl)phenyl]-4-(pyridin-2-ylmethoxy)benzamide]",79.6%
15,"Cc1ccc(-c2ncc[nH]2)cc1NC(=O)c1ccc(OCc2cc(OCCO)ccn2)cc1 [Example 132, N-(5-(1H-imidazol-2-yl)-2-methylphenyl)-4-((4-(2-hydroxyethoxy)pyridin-2-yl)methoxy)benzamide]",77.1%
16,"Cc1nc(-c2ccc(C)c(NC(=O)c3ccc(OCc4ccccn4)cc3)c2)no1 [Example 40, N-(2-methyl-5-(5-methyl-1,2,4-oxadiazol-3-yl)phenyl)-4-(pyridin-2-ylmethoxy)benzamide]",6.5%
17,"Cc1cc(Cl)c(-c2ncc[nH]2)cc1NC(=O)c1ccc(OCc2ccccn2)cc1 [Example 76, N-[4-chloro-5-(1H-imidazol-2-yl)-2-methylphenyl]-4-(pyridin-2-ylmethoxy)benzamide]",77.6%

# Same assay, conditions: Mus musculus, C3H 10T1/2, Shh ligand conditioned media, 72 h, alkaline phosphatase (pNp, 405 nm)
row,Compound,IC50
1,"Cc1ccc(-c2ncc(C)n2C)cc1NC(=O)c1ccc(OCc2ccccn2)cc1 [Example 20, N-[5-(1,5-dimethylimidazol-2-yl)-2-methyl-phenyl]-4-(pyridin-2-ylmethoxy)benzamide]",< 3 nM
